Experiments:
APP mRNA = tested on: APP mRNA; set-up: method as in PMID 20558735, PMID 22693681; conditions: resulting in decreased production of APP and Aβ; cited from earlier work
[1] = CSF pharmacokinetics of Posiphen and its N1 and N8 metabolites (lumbar catheter sampling, LC-MS); type: in vivo, human; conditions: for mean levels averaged over 24 h of CSF sampling: after 21–23 days, early AD; for Tmax: median (min-max); for AUC(0-t) / Cmax: 60 mg; for AUC(0-t): read-out: AUC0 − 24; for Cmax: read-out: Cmax
Excerpt: (§1) For the confinement visit, subjects arrived in the early morning after an overnight fast. Physical and neurological examination, vital signs, and assessment of compliance were completed and blood was drawn for safety laboratory tests. An intravenous line and a second line for repeated blood draw were placed. To sample CSF, the intrathecal space was accessed using a Perifix 18G Touhy Epidural Needle (90 mm), and a Polyamide Epidural Catheter (20G Closed Tip) was inserted and fixed in place by an Anesthesiologist. Participants received the last day’s dosing of study drug or placebo. Initial blood and CSF samples were drawn, intravenous infusion of ^13C6-leucine was started and continued for 9 h, during which time subjects received a low leucine diet. Blood and CSF were sampled every 2 h for 36 h. After 36 h, intravenous lines and the CSF catheter were removed, vital signs were measured, physical exam performed, and blood and CSF were sent for routine laboratory studies. […] If postural headache was present, a blood patch was performed. Once stable, participants underwent a brief exam and vital sign check and were discharged. They received a phone call 24 h after discharge to check on their wellbeing.
(§2) For biochemical analysis to derive data for SILK, ^13C6-leucine was analyzed in plasma and CSF by mass spectrometry, and Aβ peptides in CSF were analyzed by immunoprecipitation-mass spectrometry (IP-MS) as previously described, by C2N Diagnostics (St Louis, MO). CSF levels of sAPPα, sAPPβ, Aβ38, 40 and 42 were analyzed by the ADCS Biomarker Core using Mesoscale Discovery (MSD) electrochemiluminescent assays (Mesoscale Discovery, Rockville, MD). Levels of Posiphen and its N1 and N8 metabolites in plasma and CSF were measured by Charles River Laboratories (Montreal, CA) by high-performance liquid chromatographic mass spectrometry, with use of deuterated Posiphen (procured by Charles River Laboratories) as an internal standard.
(§3) A prespecified Statistical Analysis Plan (SAP) was prepared and finalized before the database lock occurred. For safety and tolerability, frequencies of adverse events, serious adverse events and laboratory abnormalities between the participants across the three groups are compared, using Pearson’s χ [2] or ANOVA, as appropriate. Plasma concentration-time data are analyzed by non-compartmental methods using WinNonlin version 6.2.1 or greater. Calculations are based on the actual sampling times recorded during the study. For PK analysis, only the subjects receiving Posiphen are included.
(§4) Noncompartmental pharmacokinetic parameters were estimated using Phoenix WinNonlin v8.3 (Certara, Princeton, NJ). Levels and parameters (Cmax, AUC) of posiphen, n-1 and n-8 metabolites were highly correlated in plasma and CSF. For the BID and TID doses the expected post dose plasma peaks appeared attenuated.

Aβ42 = test: CSF Aβ42 level, screening to day 21 (MSD immunoassay); type: in vivo, human; conditions: ANOVA with age and sex as covariates; p = 0.33
Method: as §2
(§5) Changes in CSF biomarkers from the screening to confinement (sample at time of placement of catheter) were compared in the treatment and placebo groups by ANOVA, with models that included age, sex and baseline MMSE, and further analysis stratified by treatment dose. A similar approach was taken to analyze changes in MMSE, ADAS-cog and NPI. Data were analyzed using R (version 4.2.2).

sAPPβ = test: CSF sAPPβ level, screening to day 21 (MSD immunoassay); type: in vivo, human; conditions: ANOVA with age and sex as covariates; p = 0.16
Method: as §2, §5

[2] = Safety and tolerability (adverse events, vital signs, EKG, laboratory tests); type: in vivo, human
Method: Safety measures included adverse events, vital signs, EKG and laboratory tests. The Mini-Mental State Examination (MMSE), Alzheimer’s Disease Assessment Scale-cognitive (ADAS-cog12) and Neuropsychiatric Inventory (NPI) were used as cognitive and behavioral outcomes,.
as §3

[3] = Plasma pharmacokinetics of Posiphen and its N1 and N8 metabolites (LC-MS, non-compartmental); type: in vivo, human; conditions: for Tmax: median (min-max); for AUC(0-t) / Cmax: 60 mg; for AUC(0-t): read-out: AUC0 − 24; for Cmax: read-out: Cmax; for mean levels averaged over 24 h of CSF sampling: after 21–23 days, early AD
Excerpt: as §1, §2, §3, §4

Total tau = test: CSF total tau level, screening to day 21; type: in vivo, human
Method: as §5

[4] = human, oral, 60 mg BID (n = 5), geometric mean (% geometric CV)
[5] = human, oral, 60 mg daily (n = 4; N1: only one participant measurable), geometric mean (% geometric CV)
[6] = human, plasma, oral, plasma, 60 mg BID (n = 5), geometric mean (% geometric CV)
[7] = human, plasma, oral, plasma, 60 mg TID (n = 1)
[8] = human, plasma, oral, plasma, 60 mg daily (n = 4), geometric mean (% geometric CV)
[9] = plasma, 60 mg daily (n = 4), geometric mean (% geometric CV)

CN1CC[C@]2(C)c3cc(OC(=O)Nc4ccccc4)ccc3N(C)[C@H]12 [Posiphen]
translation of APP mRNA (APP mRNA): decreased
mean levels averaged over 24 h of CSF sampling ([1]; 60 mg (n = 5)): 0.46 ± 0.30 ng/mL
mean levels averaged over 24 h of CSF sampling ([1]; 60 mg BID (n = 5)): 0.73 ± 0.53 ng/mL
Tmax ([1]; 60 mg BID (n = 5)): 2 (2–20) hr
mean levels averaged over 24 h of CSF sampling ([1]; 60 mg TID (n = 1)): 0.71 ng/mL
Tmax ([1]; human, oral, 60 mg daily (n = 4; N1: only one participant measurable), read-out: Tmax): 2 h
AUC(0-t) [1, 4]: 17.9 ng·h/mL
Cmax [1, 4]: 2.21 ng/mL
AUC(0-t) ([1]; human, oral, 60 mg TID (n = 1)): 25 ng·h/mL
Cmax ([1]; human, oral, 60 mg TID (n = 1)): 2.44 ng/mL
AUC(0-t) [1, 5]: 12.3 ng·h/mL
Cmax [1, 5]: 2.85 ng/mL
CSF Aβ42, Treatment difference (Posiphen – placebo) (Aβ42): -0.104 (0.102) p = 0.33 pg/mL
CSF sAPPβ, Treatment difference (Posiphen – placebo) (sAPPβ): 47.9 (31.6) p = 0.16 pg/mL
ECG parameters ([2]; Posiphen vs placebo groups): no significant changes or differences
laboratory safety parameters ([2]; Posiphen vs placebo groups): no clinically significant changes
safety and tolerability ([2]; early AD, 60 mg once, twice or three times per day for 21–23 days, 11 received Posiphen, 7 placebo): safe and was generally well tolerated
adverse events (AEs), frequency vs placebo ([2]; early AD, 21–23 days): did not differ in frequency between the groups
vital signs ([2]; early AD, 21–23 days): no significant changes
plasma exposure with more frequent dosing ([3]; 60 mg once, twice, three times daily): did not increase proportionally
half-life ([3]; human, oral, plasma, 60 mg daily (n = 4), geometric mean (% geometric CV)): 3.55 h
Tmax ([3]; human, oral, plasma, 60 mg daily (n = 4), read-out: Tmax): 2 h
AUC(0-t) [3, 6]: 196 ng·h/mL
Cmax [3, 6]: 30.4 ng/mL
AUC(0-t) [3, 7]: 288 ng·h/mL
Cmax [3, 7]: 51.8 ng/mL
AUC(0-t) [3, 8]: 212 ng·h/mL
Cmax [3, 8]: 52.7 ng/mL
mean levels averaged over 24 h of CSF sampling ([3]; plasma, 60 mg BID (n = 5)): 9.51 ± 5.77 ng/mL
Tmax ([3]; plasma, 60 mg BID (n = 5)): 2 (2–12) hr
mean levels averaged over 24 h of CSF sampling ([3]; plasma, 60 mg TID (n = 1)): 12.01 ng/mL
Cl/F [3, 9]: 274.04 (17.50) L/hr
V/F [3, 9]: 1403.1 (59.23) L
mean levels averaged over 24 h of CSF sampling ([3]; plasma, 60 mg once daily (n = 5)): 7.16 ± 4.25 ng/mL
CSF Total tau, Treatment difference (Posiphen – placebo) (Total tau; ANOVA with age and sex as covariates, p = 0.39): 133 (149) p = 0.39 pg/mL
CSF Total tau, Day 21 (Total tau; Posiphen arm, all doses (n = 10), screening 751 ± 404 (n = 11)): 849 ± 369 (n = 10) pg/mL
CSF Total tau, LS mean change (Total tau; screening to day 21, SEM 79.1, placebo 53.7): 186.4 pg/mL

— article PMC11225352, “A multicenter, randomized, double-blind, placebo-controlled ascending dose study to evaluate the safety, tolerability, pharmacokinetics (PK) and pharmacodynamic (PD) effects of Posiphen in subjects with early Alzheimer’s Disease” (Alzheimer's Research & Therapy, 2024)
